Laboratory results taken from Sander's compilation of Henry's law constants.

Experiment: Henry solubility constant Hcp at 298.15 K (mol/(m3 Pa))
[1] = reference: Shunthirasingham et al. (2013)
[2] = reference: Wetlaufer et al. (1964)
[3] = reference: Kuramochi et al. (2004)
[4] = reference: Murphy et al. (1983a)
[5] = reference: Warner et al. (1980)
[6] = reference: Cetin and Odabasi (2005)
[7] = reference: Charles and Destaillats (2005)
[8] = reference: Drouillard et al. (1998)
[9] = reference: Christie and Crisp (1967)
[10] = reference: Fichan et al. (1999)
[11] = reference: Schuhfried et al. (2011)
[12] = reference: Wieland et al. (2015)
[13] = reference: Copolovici and Niinemets (2005)
[14] = reference: Buttery et al. (1971)

In the case of `CCS` [ethanethiol], the “Henry solubility constant Hcp” value (reference: Jou et al. (2021)) is reported as 0.0024 and the “Henry solubility constant Hcp” value (reference: Vitenberg et al. (1975)) is reported as 0.0022.

For `Cc1cccnc1` [3-methylpyridine], the “Henry solubility constant Hcp” value (reference: Chaintreau et al. (1995)) was 0.42.

With `CCCCCCCCO` [1-octanol] the “Henry solubility constant Hcp” value (reference: Lei et al. (2007)) was 0.19, the “Henry solubility constant Hcp” value [1] was 0.21 and the “Henry solubility constant Hcp” value (reference: Wu et al. (2022a)) was 0.17.

For `Cc1c[nH]c2ccccc12` [3-methylindole], the “Henry solubility constant Hcp” value [2] was 2.9e-05.

With `Brc1cc(Br)c(Br)cc1Br` [1,2,4,5-tetrabromobenzene] the “Henry solubility constant Hcp” value [3] was 0.0027.

In the case of `CCCCCCC` [heptane], the “Henry solubility constant Hcp” value (reference: Jönsson et al. (1982)) is reported as 4.2e-06 and the “Henry solubility constant Hcp” value (reference: Park et al. (1997)) is reported as 5.5e-06.

With `CC(C)(C)Cl` [2-chloro-2-methylpropane] the “Henry solubility constant Hcp” value (reference: Clarke et al. (1962)) was 0.00016.

With `CCCCCC/C=C/C=O` [(E)-2-nonenal] the “Henry solubility constant Hcp” value (reference: Roberts and Pollien (1997)) was 0.058.

In the case of `CCCCCCCCCCO` [1-decanol], the “Henry solubility constant Hcp” value (reference: Lei et al. (2007)) is reported as 0.065 and the “Henry solubility constant Hcp” value [1] is reported as 0.076.

In the case of `Cc1cccc2ccccc12` [1-methylnaphthalene], the “Henry solubility constant Hcp” value (reference: Schwarz and Wasik (1977)) is reported as 0.028.

With `COC(=O)CCC(=O)OC` [butanedioic acid, dimethyl ester] the “Henry solubility constant Hcp” value (reference: Katrib et al. (2003)) was 30.

With `CCCCC(CC)CO` (stereo unspecified) [2-ethyl-1-hexanol] the “Henry solubility constant Hcp” value (reference: Wu et al. (2022a)) was 0.15.

For `O=CCCCC=O` [pentanedial], the “Henry solubility constant Hcp” value (reference: Olson (1998)) was 300.

For `CCC(C)(C)O` [2-methyl-2-butanol], the “Henry solubility constant Hcp” value (reference: Butler et al. (1935)) was 0.71 and the “Henry solubility constant Hcp” value (reference: Fenclová et al. (2010)) was 0.72.

In the case of `CCCl` [chloroethane], the “Henry solubility constant Hcp” value (reference: Chen et al. (2012)) is reported as 0.00076, the “Henry solubility constant Hcp” value (reference: Gossett (1987)) is reported as 0.00088 and the “Henry solubility constant Hcp” value (reference: Maaßen (1995)) is reported as 0.00089. The “Henry solubility constant Hcp” value (reference: Reichl (1995)) was 0.00093.

In the case of `Clc1ccc(Cl)c(-c2cc(Cl)ccc2Cl)c1` [2,2',5,5'-tetrachlorobiphenyl], the “Henry solubility constant Hcp” value [4] is reported as 0.045.

With `C1CO1` [oxirane] the “Henry solubility constant Hcp” value (reference: Conway et al. (1983)) was 0.058.

With `C1=Cc2cccc3cccc1c23` [acenaphthylene] the “Henry solubility constant Hcp” value [5] was 0.087.

For `N#Cc1c(Cl)cccc1Cl` [2,6-dichlorobenzenenitrile], the “Henry solubility constant Hcp” value (reference: Schoene and Steinhanses (1985)) was 0.48.

For `c1cc2c3c(cccc3c1)CC2` [acenaphthene], the “Henry solubility constant Hcp” value (reference: Mackay et al. (1979)) was 0.068 and the “Henry solubility constant Hcp” value [5] was 0.041.

For `CCCCCCCC(=O)OCC` [ethyl octanoate], the “Henry solubility constant Hcp” value (reference: Aprea et al. (2007)) was 0.011.

With `CCC(CC)O[N+](=O)[O-]` [3-pentyl nitrate] the “Henry solubility constant Hcp” value (reference: Hauff et al. (1998)) was 0.0038.

For `OCCC(F)(F)C(F)(F)C(F)(F)C(F)(F)C(F)(F)C(F)(F)C(F)(F)C(F)(F)C(F)(F)C(F)(F)F` [1,1,2,2-tetrahydroperfluoro dodecanol], the “Henry solubility constant Hcp” value (reference: Wu and Chang (2011)) was 0.00013.

For `C=CC=O` [propenal], the “Henry solubility constant Hcp” value (reference: Snider and Dawson (1985)) was 0.072.

With `CCCCCCCCCC(=O)OCC` [ethyl decanoate] the “Henry solubility constant Hcp” value (reference: Aprea et al. (2007)) was 0.014.

For `BrCCCCCCCCBr` [1,8-dibromooctane], the “Henry solubility constant Hcp” value (reference: Sarraute et al. (2006)) was 0.013.

For `O=S(=O)(F)F` [sulfuryl fluoride], the “Henry solubility constant Hcp” value (reference: Cady and Misra (1974)) was 8.9e-05.

With `O=C(O)C(F)(F)C(F)(F)F` [perfluoropropanoic acid] the “Henry solubility constant Hcp” value (reference: Kwan (2001)) was 8.8.

For `CCCCC(=O)O` [pentanoic acid], the “Henry solubility constant Hcp” value (reference: Khan and Brimblecombe (1992)) was 21, the “Henry solubility constant Hcp” value (reference: Khan et al. (1995)) was 23 and the “Henry solubility constant Hcp” value (reference: Kim and Kim (2016)) was 24. The “Henry solubility constant Hcp” value (reference: von Hartungen et al. (2004)) was 12.

In the case of `Brc1ccc(Oc2cc(Br)c(Br)cc2Br)c(Br)c1` [2,2',4,4',5-pentabromodiphenyl ether], the “Henry solubility constant Hcp” value [6] is reported as 1.5, the “Henry solubility constant Hcp” value [7] is reported as 0.27 and the “Henry solubility constant Hcp” value (reference: Long et al. (2017)) is reported as 1.5.

With `ClCC(Cl)CCCCCCCC(Cl)CCl` (stereo unspecified) [1,2,10,11-tetrachloroundecane] the “Henry solubility constant Hcp” value [8] was 0.16.

For `COC(=O)OC` [carbonic acid, dimethyl ester], the “Henry solubility constant Hcp” value (reference: Böhme et al. (2008)) was 0.16.

In the case of `CNC=O` [N-methylmethanamide], the “Henry solubility constant Hcp” value (reference: Bernauer and Dohnal (2008)) is reported as 1500.

For `CCCCCCN` [1-hexanamine], the “Henry solubility constant Hcp” value [9] was 0.37.

For `FC(Cl)C(F)(F)C(F)(F)Cl` (stereo unspecified) [1,3-dichloro-1,1,2,2,3-pentafluoro-propane], the “Henry solubility constant Hcp” value (reference: Kutsuna (2013)) was 0.00011.

In the case of `FC(F)(F)CCl` [2-chloro-1,1,1-trifluoroethane], the “Henry solubility constant Hcp” value (reference: Maaßen (1995)) is reported as 0.00037 and the “Henry solubility constant Hcp” value (reference: Reichl (1995)) is reported as 0.00041.

With `CC1(C)C2CC3OC3(C)C1C2` (stereo unspecified) [2,7,7-trimethyl-3-oxatricyclo[4.1.1.0(2,4)]octane] the “Henry solubility constant Hcp” value [10] was 0.023.

In the case of `CCSCC` [diethyl sulfide], the “Henry solubility constant Hcp” value [11] is reported as 0.0035.

For `CCCSSCCC` [dipropyl disulfide], the “Henry solubility constant Hcp” value [11] was 0.0024.

In the case of `COC(C)=O` [methyl ethanoate], the “Henry solubility constant Hcp” value (reference: Arp and Schmidt (2004)) is reported as 0.066, the “Henry solubility constant Hcp” value (reference: Butler and Ramchandani (1935)) is reported as 0.11 and the “Henry solubility constant Hcp” value (reference: Fenclová et al. (2014)) is reported as 0.081. The “Henry solubility constant Hcp” value (reference: Ioffe et al. (1984)) was 0.077, the “Henry solubility constant Hcp” value (reference: Kieckbusch and King (1979b)) was 0.077 and the “Henry solubility constant Hcp” value (reference: McKeown and Stowell (1927)) was 0.087.

For `C#CCBr` [3-bromo-1-propyne], the “Henry solubility constant Hcp” value (reference: Yates and Gan (1998)) was 0.0088.

For `ClCC(Cl)CCCCCCC(Cl)CCl` (stereo unspecified) [1,2,9,10-tetrachlorodecane], the “Henry solubility constant Hcp” value [8] was 0.056.

For `CC(C)(C)C` [dimethylpropane], the “Henry solubility constant Hcp” value (reference: Shoor et al. (1969)) was 5.5e-06 and the “Henry solubility constant Hcp” value [2] was 6.3e-06.

For `ClC1=C(Cl)C2(Cl)C3C(Cl)C=CC3C1(Cl)C2(Cl)Cl` (stereo unspecified) [heptachlor], the “Henry solubility constant Hcp” value [5] was 0.0067.

For `Clc1ccc(-c2ccc(Cl)c(Cl)c2)cc1Cl` [3,3',4,4'-tetrachlorobiphenyl], the “Henry solubility constant Hcp” value [7] was 0.029.

In the case of `CC(=O)/C=C/C1=C(C)CCCC1(C)C` [β-ionone], the “Henry solubility constant Hcp” value [10] is reported as 1.2.

With `Cc1cccc(C)n1` [2,6-dimethylpyridine] the “Henry solubility constant Hcp” value (reference: Hawthorne et al. (1985)) was 0.66.

For `Brc1cc(Br)c(Oc2cc(Br)c(Br)cc2Br)c(Br)c1` [2,2',4,4',5,6'-hexabromodiphenyl ether], the “Henry solubility constant Hcp” value [6] was 7.3 and the “Henry solubility constant Hcp” value (reference: Long et al. (2017)) was 7.1.

In the case of `Fc1c(F)c(F)c(F)c(F)c1F` [hexafluorobenzene], the “Henry solubility constant Hcp” value (reference: Schröder et al. (2011)) is reported as 0.00029.

In the case of `CC(=O)C(F)(F)F` [1,1,1-trifluoro-2-propanone], the “Henry solubility constant Hcp” value (reference: Betterton (1991)) is reported as 1.4.

In the case of `BrC(Br)C(Br)Br` [1,1,2,2-tetrabromoethane], the “Henry solubility constant Hcp” value (reference: Khalfaoui and Newsham (1994a)) is reported as 0.01.

In the case of `CCCNCCC` [dipropylamine], the “Henry solubility constant Hcp” value [9] is reported as 0.19 and the “Henry solubility constant Hcp” value (reference: Leng et al. (2015a)) is reported as 0.12.

In the case of `CCc1ncc(C)nc1C` [2-ethyl-3,5-dimethylpyrazine], the “Henry solubility constant Hcp” value [12] is reported as 2.9.

With `O=C(O)CBr` [bromoethanoic acid] the “Henry solubility constant Hcp” value (reference: Bowden et al. (1998a)) was 1500.

With `Brc1ccc(Br)cc1` [1,4-dibromobenzene] the “Henry solubility constant Hcp” value [3] was 0.0094.

In the case of `C=COCCC` [propyl vinyl ether], the “Henry solubility constant Hcp” value (reference: Hwang et al. (2010)) is reported as 0.0031.

For `FC(F)(F)C(F)(F)Cl` [chloropentafluoroethane], the “Henry solubility constant Hcp” value (reference: Reichl (1995)) was 3.1e-06.

With `CC(C)CS` [2-methyl-1-propanethiol] the “Henry solubility constant Hcp” value (reference: Zin et al. (2016)) was 0.001.

With `CC(C)(Cl)Cl` [2,2-dichloropropane] the “Henry solubility constant Hcp” value (reference: Bakierowska and Trzeszczyński (2003)) was 0.00081.

In the case of `CN(CCO)CCO` [N-methyldiethanolamine], the “Henry solubility constant Hcp” value (reference: Kim et al. (2008)) is reported as 400000 and the “Henry solubility constant Hcp” value (reference: Nguyen (2013)) is reported as 3900.

For `ClC1=C(Cl)[C@]2(Cl)[C@H]3[C@H]([C@@H]4C=C[C@H]3C4)[C@@]1(Cl)C2(Cl)Cl` [aldrin], the “Henry solubility constant Hcp” value [5] was 0.02.

For `C=C1C=CC(C(C)C)CC1` (stereo not drawn) [β-phellandrene], the “Henry solubility constant Hcp” value [13] was 0.00018.

With `O=NCl` [nitrosyl chloride] the “Henry solubility constant Hcp” value (reference: Scheer et al. (1997)) was > 0.00049.

With `Clc1ccc(-c2c(Cl)c(Cl)cc(Cl)c2Cl)c(Cl)c1Cl` [2,2',3,3',4,5',6'-heptachlorobiphenyl] the “Henry solubility constant Hcp” value [4] was 0.0045.

With `FN(F)F` [nitrogen trifluoride] the “Henry solubility constant Hcp” value (reference: Ashton et al. (1968)) was 7.8e-06 and the “Henry solubility constant Hcp” value (reference: Dean et al. (1973)) was 7.7e-06.

In the case of `II` [iodine (molecular)], the “Henry solubility constant Hcp” value (reference: Eguchi et al. (1973)) is reported as 0.028.

With `O=CC(=O)O` [oxoethanoic acid] the “Henry solubility constant Hcp” value (reference: Ip et al. (2009)) was 110.

With `C=C(C)[C@H]1CC=C(C)CC1` [(R)-1-methyl-4-(1-methylethenyl)-cyclohexene] the “Henry solubility constant Hcp” value [13] was 0.00035 and the “Henry solubility constant Hcp” value (reference: Schuhfried et al. (2015)) was 0.00038.

With `CC(C)(C)CC(C)(C)c1ccc(O)cc1` [4-(1,1,3,3-tetramethylbutyl)-phenol] the “Henry solubility constant Hcp” value (reference: Xie et al. (2004)) was 2.3.

For `FC(F)(F)C(F)(F)C(F)(F)F` [octafluoropropane], the “Henry solubility constant Hcp” value (reference: Wen and Muccitelli (1979)) was 1.2e-07.

In the case of `Clc1ccccc1-c1c(Cl)cccc1Cl` [2,2',6-trichlorobiphenyl], the “Henry solubility constant Hcp” value [4] is reported as 0.047.

For `C/C=C/C=C/C=O` [(E,E)-2,4-hexadienal], the “Henry solubility constant Hcp” value [14] was 1.

For `CCOC(=O)CC(C)C` [ethyl 3-methylbutanoate], the “Henry solubility constant Hcp” value [12] was 0.011.

For `CCc1cnccn1` [2-ethylpyrazine], the “Henry solubility constant Hcp” value [14] was 4.
